Where two headings read alike, the source gives them in different places.
What was measured:
[1] = molecular target: human α2δ-1 subunit of Cav2.2 calcium channel (Homo sapiens (Human), UniProt P54289); assay: Binding assay to human α2δ-1 subunit of Cav2.2 calcium channel ([3H]-Gabapentin); details: read-out: Ki (nM) alpha2delta Hum
Protocol: Binding Assay to Human α2δ-1 Subunit of Cav2.2 Calcium Channel.
Human α2δ-1 enriched membranes (2.5 μg) were incubated with 15 nM of radiolabeled [3H]-Gabapentin in assay buffer containing Hepes-KOH 10 mM, pH 7.4.
NSB (non specific binding) was measured by adding 10 μM pregabalin. The binding of the test compound was measured at five different concentrations. After 60 min incubation at 27° C., binding reaction was terminated by filtering through Multiscreen GF/C (Millipore) presoaked in 0.5% polyethyleneimine in Vacuum Manifold Station, followed by 3 washes with ice-cold filtration buffer containing 50 mM Tris-HCl, pH 7.4. Filter plates were dried at 60° C. for 1 h and 30 μl of scintillation cocktail were added to each well before radioactivity reading.
(§1) Readings were performed in a Trilux 1450 Microbeta radioactive counter (Perkin Elmer).

[2] = molecular target: human norepinephrine transporter (NET) (Homo sapiens (Human), UniProt P23975); assay: Binding assay to human norepinephrine transporter (NET) ([3H]-Nisoxetin); details: Table 2, dual compounds, human NET enriched membranes, read-out: Ki (nM) NET Hum
Protocol: Binding Assay to Human Norepinephrine Transporter (NET).
Human norepinephrine transporter (NET) enriched membranes (5 μg) were incubated with 5 nM of radiolabeled [3H]-Nisoxetin in assay buffer containing 50 mM Tris-HCl, 120 mM NaCl, 5 mM KCl, pH 7.4.
NSB (non specific binding) was measured by adding desipramine 10 μM. The binding of the test compound was measured at five different concentrations. After 60 min incubation at 4° C., binding reaction was terminated by filtering through Multiscreen GF/C (Millipore) presoaked in 0.5% polyethyleneimine in Vacuum Manifold Station, followed by 3 washes with ice-cold filtration buffer containing 50 mM Tris-HCl, 0.9% NaCl, pH 7.4.
Filter plates were dried at 60° C. for 1 h and 30 μl of scintillation cocktail were added to each well before radioactivity reading.
as §1

[3] = Table 1, human α2δ-1 enriched membranes
[4] = Table 2, dual compounds, human α2δ-1 enriched membranes

Chain of human norepinephrine transporter (NET) (P23975 whole entry): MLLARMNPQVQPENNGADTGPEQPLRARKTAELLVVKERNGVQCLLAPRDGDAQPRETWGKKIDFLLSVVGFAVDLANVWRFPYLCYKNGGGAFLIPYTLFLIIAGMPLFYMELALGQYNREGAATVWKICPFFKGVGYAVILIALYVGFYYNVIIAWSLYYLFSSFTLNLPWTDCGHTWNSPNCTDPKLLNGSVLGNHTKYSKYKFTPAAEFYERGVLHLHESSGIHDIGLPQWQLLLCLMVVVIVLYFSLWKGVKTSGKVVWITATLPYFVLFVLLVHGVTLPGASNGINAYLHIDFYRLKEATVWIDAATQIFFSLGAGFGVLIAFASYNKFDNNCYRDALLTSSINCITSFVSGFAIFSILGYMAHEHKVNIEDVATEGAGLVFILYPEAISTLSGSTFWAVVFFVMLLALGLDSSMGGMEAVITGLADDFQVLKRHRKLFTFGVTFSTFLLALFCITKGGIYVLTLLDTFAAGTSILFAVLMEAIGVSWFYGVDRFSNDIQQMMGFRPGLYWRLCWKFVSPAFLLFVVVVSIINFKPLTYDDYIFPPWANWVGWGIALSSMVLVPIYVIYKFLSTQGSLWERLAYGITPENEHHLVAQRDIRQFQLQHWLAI
Chain of human α2δ-1 subunit of Cav2.2 calcium channel (P54289 25-1103): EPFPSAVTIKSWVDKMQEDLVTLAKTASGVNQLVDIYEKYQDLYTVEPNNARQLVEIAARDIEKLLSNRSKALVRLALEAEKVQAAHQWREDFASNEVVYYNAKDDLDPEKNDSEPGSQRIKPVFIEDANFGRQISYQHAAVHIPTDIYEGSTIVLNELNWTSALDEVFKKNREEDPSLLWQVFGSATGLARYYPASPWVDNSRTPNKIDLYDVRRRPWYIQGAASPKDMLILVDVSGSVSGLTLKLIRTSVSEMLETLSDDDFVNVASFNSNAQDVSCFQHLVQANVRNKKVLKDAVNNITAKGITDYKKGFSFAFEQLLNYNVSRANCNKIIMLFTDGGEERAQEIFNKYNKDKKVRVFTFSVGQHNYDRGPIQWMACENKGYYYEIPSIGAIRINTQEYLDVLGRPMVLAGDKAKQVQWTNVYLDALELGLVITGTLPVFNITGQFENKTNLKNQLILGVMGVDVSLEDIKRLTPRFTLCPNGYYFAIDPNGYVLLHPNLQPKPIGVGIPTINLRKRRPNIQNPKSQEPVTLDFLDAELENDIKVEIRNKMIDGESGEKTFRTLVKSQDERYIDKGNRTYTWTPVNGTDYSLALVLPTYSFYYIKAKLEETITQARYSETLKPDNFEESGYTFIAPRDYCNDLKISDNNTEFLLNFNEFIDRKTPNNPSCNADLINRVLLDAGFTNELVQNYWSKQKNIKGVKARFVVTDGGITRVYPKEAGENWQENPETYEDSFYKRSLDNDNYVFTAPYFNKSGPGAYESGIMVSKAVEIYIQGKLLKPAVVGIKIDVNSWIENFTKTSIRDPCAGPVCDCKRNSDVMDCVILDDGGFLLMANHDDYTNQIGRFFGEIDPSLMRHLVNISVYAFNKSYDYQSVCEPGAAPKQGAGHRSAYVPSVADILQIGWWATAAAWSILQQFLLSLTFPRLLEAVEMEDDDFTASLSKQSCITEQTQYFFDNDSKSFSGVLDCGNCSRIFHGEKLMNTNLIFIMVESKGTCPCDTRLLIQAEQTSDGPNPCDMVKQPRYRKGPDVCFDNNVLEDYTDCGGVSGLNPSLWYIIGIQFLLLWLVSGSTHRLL

| Ki [1, 3] [nM] | Ki [1, 4] [nM] | Ki [2] [nM] | Structure (SMILES) |
| --- | --- | --- | --- |
| 100 to 500 | 100 to 500 | 100 to 500 | CNCC[C@H](Oc1cccc2ccncc12)c1cccs1 (stereo in doubt) [Example 12, 3-(isoquinolin-8-yloxy)-N-methyl-3-(thiophen-2-yl)propan-1-amine] |
| ≥ 3000 | ≥ 3000 | < 100 | CNCCC(Oc1cccc2cccnc12)c1cccs1 (stereo not shown) [Example 1, N-Methyl-3-(quinolin-8-yloxy)-3-(thiophen-2-yl)propan-1-amine] |
| 100 to 500 | 100 to 500 | 100 to 500 | CNCCC(Oc1cccc2ncccc12)c1cccs1 (stereo not shown) [Example 2, N-methyl-3-(quinolin-5-yloxy)-3-(thiophen-2-yl)propan-1-amine] |
| 100 to 500 | 100 to 500 | < 100 | CNCCC(Oc1cccc2cnccc12)c1cccs1 (stereo not shown) [Example 3, 3-(isoquinolin-5-yloxy)-N-methyl-3-(thiophen-2-yl)propan-1-amine] |
| < 100 | < 100 | 500 to 1000 | CNCC[C@H](Oc1cccc2ncccc12)c1cccs1 [Example 9, (S)-N-methyl-3-(quinolin-5-yloxy)-3-(thiophen-2-yl)propan-1-amine] |
| ≥ 3000 | ≥ 3000 | 500 to 1000 | CNCC[C@H](Oc1cccc2ccncc12)c1cccs1 [Example 10, (S)-3-(isoquinolin-8-yloxy)-N-methyl-3-(thiophen-2-yl)propan-1-amine] |
| ≥ 3000 | ≥ 3000 | < 100 | CNCC[C@H](Oc1cccc2cnccc12)c1cccs1 [Example 11, (S)-3-(isoquinolin-5-yloxy)-N-methyl-3-(thiophen-2-yl)propan-1-amine] |
| 100 to 500 | 100 to 500 | 100 to 500 | CNCC[C@@H](Oc1cccc2ccncc12)c1cccs1 [Example 13, (R)-3-(isoquinolin-8-yloxy)-N-methyl-3-(thiophen-2-yl)propan-1-amine] |
| 100 to 500 | 100 to 500 | 100 to 500 | CNCC[C@@H](Oc1cccc2cnccc12)c1cccs1 [Example 14, (R)-3-(isoquinolin-5-yloxy)-N-methyl-3-(thiophen-2-yl)propan-1-amine] |
| 100 to 500 | 100 to 500 | 100 to 500 | CNCC[C@@H](Oc1cccc2ncccc12)c1cccs1 [Example 15, (R)-N-methyl-3-(quinolin-5-yloxy)-3-(thiophen-2-yl)propan-1-amine] |
| ≥ 3000 | ≥ 3000 | 100 to 500 | CNCCC(Oc1cccc2cnccc12)c1cccnc1 (stereo not shown) [Example 17, 3-(isoquinolin-5-yloxy)-N-methyl-3-(pyridin-3-yl)propan-1-amine] |
| ≥ 3000 | ≥ 3000 | 100 to 500 | CNCCC(Oc1cccc2cnccc12)C1CCOCC1 (stereo not shown) [Example 18, 3-(isoquinolin-5-yloxy)-N-methyl-3-(tetrahydro-2H-pyran-4-yl)propan-1-amine] |
| ≥ 3000 | ≥ 3000 | 100 to 500 | CNCCC(Oc1cccc2cnccc12)c1ccncc1 (stereo not shown) [Example 25, 3-(isoquinolin-5-yloxy)-N-methyl-3-(pyridin-4-yl)propan-1-amine] |
| ≥ 3000 | ≥ 3000 | 500 to 1000 | CNCCC(Oc1cccc2ccncc12)c1cc(C(F)(F)F)ccn1 (stereo not shown) [Example 30, 3-(isoquinolin-8-yloxy)-N-methyl-3-(4-(trifluoromethyl)pyridin-2-yl)propan-1-amine] |
| 100 to 500 | 100 to 500 | 100 to 500 | CNCCC(Oc1cccc2ncccc12)c1ccc(Cl)s1 (stereo not shown) [Example 41, 3-(5-chlorothiophen-2-yl)-N-methyl-3-(quinolin-5-yloxy)propan-1-amine] |
| < 100 | < 100 | 100 to 500 | CNCCC(Oc1cccc2ncccc12)c1ccc(F)s1 (stereo not shown) [Example 42, 3-(5-fluorothiophen-2-yl)-N-methyl-3-(quinolin-5-yloxy)propan-1-amine] |
| ≥ 3000 | ≥ 3000 | 100 to 500 | NCCC(Oc1cccc2cnccc12)c1cccs1 (stereo not shown) [Example 44, 3-(isoquinolin-5-yloxy)-3-(thiophen-2-yl)propan-1-amine] |
| < 100 | < 100 | 100 to 500 | CNCCC(Oc1cccc2cnccc12)c1ccc(F)s1 (stereo not shown) [Example 45, 3-(5-fluorothiophen-2-yl)-3-(isoquinolin-5-yloxy)-N-methylpropan-1-amine] |
| 100 to 500 | 100 to 500 | < 100 | CNCCC(Oc1cccc2cnccc12)c1sccc1F (stereo not shown) [Example 46, 3-(3-fluorothiophen-2-yl)-3-(isoquinolin-5-yloxy)-N-methylpropan-1-amine] |

| Ki [1, 3] [nM] | Ki [1, 4] [nM] | Ki [2] [nM] | Structure (SMILES) |
| --- | --- | --- | --- |
| 100 to 500 | 100 to 500 | 100 to 500 | CNCCC(Oc1cccc2ccncc12)c1sccc1F (stereo not shown) [Example 47, 3-(3-fluorothiophen-2-yl)-3-(isoquinolin-8-yloxy)-N-methylpropan-1-amine] |
| 100 to 500 | 100 to 500 | 100 to 500 | CNCCC(Oc1cccc2ncccc12)c1sccc1F (stereo not shown) [Example 48, 3-(3-fluorothiophen-2-yl)-N-methyl-3-(quinolin-5-yloxy)propan-1-amine] |
| 100 to 500 | 100 to 500 | 100 to 500 | CNCCC(Oc1cccc2ccncc12)c1ccc(F)s1 (stereo not shown) [Example 49, 3-(5-fluorothiophen-2-yl)-3-(isoquinolin-8-yloxy)-N-methylpropan-1-amine] |
| 500 to 3000 | 500 to 3000 | < 100 | CNCC[C@H](Oc1cccc2cnccc12)c1ccc(F)s1 [Example 50, (S)-3-(5-fluorothiophen-2-yl)-3-(isoquinolin-5-yloxy)-N-methylpropan-1-amine] |
| 100 to 500 | 100 to 500 | 100 to 500 | CNCC[C@H](Oc1cccc2ncccc12)c1ccc(F)s1 [Example 51, (S)-3-(5-fluorothiophen-2-yl)-N-methyl-3-(quinolin-5-yloxy)propan-1-amine] |
| < 100 | < 100 | 100 to 500 | CNCC[C@@H](Oc1cccc2cnccc12)c1ccc(F)s1 [Example 52, (R)-3-(5-fluorothiophen-2-yl)-3-(isoquinolin-5-yloxy)-N-methylpropan-1-amine] |
| < 100 | < 100 | 100 to 500 | CNCC[C@@H](Oc1cccc2ncccc12)c1ccc(F)s1 [Example 53, (R)-3-(5-fluorothiophen-2-yl)-N-methyl-3-(quinolin-5-yloxy)propan-1-amine] |
| 500 to 3000 | 500 to 3000 | 100 to 500 | CNCCC(Oc1ccc2cnccc2c1)c1cccs1 (stereo not shown) [Example 54, 3-(isoquinolin-6-yloxy)-N-methyl-3-(thiophen-2-yl)propan-1-amine] |
| 100 to 500 |  |  | CNCC[C@H](Oc1cccc2ncccc12)c1nccs1 [Example 76, (S)—N-Methyl-3-(quinolin-5-yloxy)-3-(thiazol-2-yl)propan-1-amine] |
| 500 to 3000 |  |  | CNCC[C@@H](Oc1cccc2ncccc12)c1nccs1 [Example 77, (R)—N-methyl-3-(quinolin-5-yloxy)-3-(thiazol-2-yl)propan-1-amine] |
| 500 to 3000 |  |  | CNCC[C@H](Oc1cccc2ccncc12)c1ccc(F)s1 [Example 80, (S)-3-(5-Fluorothiophen-2-yl)-3-(isoquinolin-8-yloxy)-N-methylpropan-1-amine] |
| 100 to 500 |  |  | CCNCC[C@@H](Oc1cccc2cnccc12)c1cccs1 [Example 88, (R)-N-ethyl-3-(isoquinolin-5-yloxy)-3-(thiophen-2-yl)propan-1-amine] |
| < 100 |  |  | CCNCC[C@@H](Oc1cccc2c(C#N)nccc12)c1cccs1 [Example 89, (R)-5-(3-(ethylamino)-1-(thiophen-2-yl)propoxy)isoquinoline-1-carbonitrile] |
| 100 to 500 |  |  | CCNCC[C@H](Oc1cccc2ncccc12)c1cccs1 [Example 90, (S)-N-ethyl-3-(quinolin-5-yloxy)-3-(thiophen-2-yl)propan-1-amine] |
| 100 to 500 |  |  | CCNCC[C@H](Oc1cccc2c(C#N)nccc12)c1cccs1 [Example 91, (S)-5-(3-(ethylamino)-1-(thiophen-2-yl)propoxy)isoquinoline-1-carbonitrile] |
| ≥ 3000 |  |  | CCNCC[C@H](Oc1cccc2cnccc12)c1cccs1 [Example 92, (S)-N-ethyl-3-(isoquinolin-5-yloxy)-3-(thiophen-2-yl)propan-1-amine] |
| 100 to 500 |  |  | CCNCC[C@@H](Oc1cccc2ncccc12)c1cccs1 [Example 93, (R)-N-ethyl-3-(quinolin-5-yloxy)-3-(thiophen-2-yl)propan-1-amine] |
| ≥ 3000 |  |  | CNCC[C@H](Oc1cnc2ccccc2c1)c1cccs1 [Example 95, (S)-N-methyl-3-(quinolin-3-yloxy)-3-(thiophen-2-yl)propan-1-amine] |

Source: patent US10941138B2, “Quinoline and isoquinoline derivatives for treating pain and pain related conditions” (ESTEVE PHARMACEUTICALS, S.A., priority 2016, dated 2021)
